According to US5360818A, “1,3-dioxane derivatives having protein kinase C inhibitory activity” (Sphinx Pharmaceuticals Corporation, priority 1993, dated 1994):

Legend:
protein kinase C = test: Protein kinase C inhibition assay (histone H1 phosphorylation); assay type: biochemical; conditions: rat brain enzyme; histone H1 substrate; 10 min
Experimental: A protein kinase C (PKC) assay is designed to duplicate the in vivo conditions required for protein kinase C function. Therefore, pH, salt and cofactor concentrations are similar to physiologic levels. A lysine rich histone, H1, was used in the assay as the phosphorylation acceptor-proteinbecause it is readily available and serves as a good substrate for protein kinase C. Enzyme was prepared from rat brain and purified to apparent homogeneity as determined by a single band on silver stained SDS-polyacrylamide.
In the screening assay, phosphatidylserine (PS) and DAG were co-sonicated to form unilamellar and multilamellar vesicles. The concentration of lipids in the assay were suboptimal to maximize the detection potential of the assay for inhibitors. Potential inhibitor compounds were added to the assay in dimethylsulfoxide at three concentrations to give final inhibitor concentrations of 4.3, 43 and 218 μM, respectively. The assay was started with the addition of enzyme and stopped after 10 min by the addition of 25% trichloroacetic acid (TCA) and 1.0 mg/ml bovine serum albumin (BSA). The radioactive histone product was retained and washed on glass fiber filters that allow the unreacted ^32 p-ATP to pass through. The amount of phosphorylation was determined by the radioactivity measured in a scintillation counter. Controls were included in every assay to measure background activity in the absence of enzyme, activity in the absence of lipids, and the maximum enzyme activity with saturating levels of the activator lipids.
Results of the protein kinase C assay are shown in Table 3 in the column labeled PKC. Results are shown as IC50, which is the concentration of test compound needed to inhibit 50% of the protein kinase C activity as compared with levels of protein kinase C activity in controls.

[1] = target: T1, cAMP dependent protein kinase (PKA) (Bos taurus, UniProt P00517); test: cAMP dependent protein kinase (PKA) assay; assay type: biochemical; conditions: 4.3, 43 and 218 μM; 10 min
T1 construct: no regulatory subunit
Experimental: Compounds found to be inhibitors of protein kinase C were tested for inhibitory activity against cAMP dependent protein kinase (PKA). This enzyme, like protein kinase C, plays an important role in cell-cell communication and is activated by a second messenger, cAMP. Secondary screening against PKA is useful for ascertaining the selectivity of the compounds of the invention. The catalytic subunit of PKA (Sigma Chemical Company, St. Louis, Mo.) was mixed with buffer before addition of the inhibitor in dimethylsulfoxide (DMSO). Potential inhibitor compounds were added to the assay in dimethylsulfoxide at three concentrations to give final inhibitor concentrations of 4.3, 43 and 218 μM, respectively. The assay was started by the addition of 32P-ATP and the reaction was allowed to proceed for 10 min before stopping with 25% trichloroacetic acid (TCA) and 1.0 mg/ml bovine serum albumin (BSA). Phosphorylated protein was then isolated by filtration and the radioactivity was counted in a beta scintillation counter.

[2] = test system: MCF-7 human breast tumor cell line; test: Human tumor cell growth inhibition (3H-thymidine incorporation), MCF-7; assay type: cell-based; conditions: MCF7, 18 to 24 hrs
Excerpt: (§1) MCF-7 a human breast tumor cell line and MCF-7/ADR an adriamycin resistant line of MCF-7 cells were obtained from the National Cancer Institute, Frederick, Md. CEM cells (ATCC accession number CCL 119) were obtained from the American Type Culture Collection, Rockville, Md.
(§2) Human tumor cells were trypsinized with 0.05% trypsin (GIBCO), counted with a hemacytometer and seeded at a concentration of 10,000 cells/well in a 96 well microtiter plate. After allowing cells to attach to the surface overnight, the culture medium was aspirated and replaced with 100 μl of fresh medium. Test agents were diluted to determine dose response at 2X final concentration and added in quadruplicate at 100 μl/well to bring the total volume of each well to 200 μl. The microtiter plate was then incubated at 37° C. 5% CO2 overnight for 18 to 24 hrs before ^3 H-thymidine was added at a concentration of 0.5 μCi/well in 50 μl culture medium. The plate was incubated again for 4 hrs under the same conditions as above. Supernatant was then aspirated and 50 μl of 0.05% trypsin (GIBCO) was added to each well.
(§3) Cells were checked microscopically to determine detachment from surfaces, and plates were then harvested with a cell harvester (PHD, Cambridge Technology, Inc.) Filter papers corresponding to wells were placed in scintillation vials and counted to determine the amount of ^3 H-thymidine incorporated by the cells. Test agent response was compared to a positive control of cell wells with culture media only to determine the IC50. IC50 is the concentration of test compound required to inhibit fifty percent of the incorporation of ^3 H-thymidine into proliferating cells not exposed to test agent. Uptake of 3H-thymidine is a standard test for measuring the metabolism of cells. Cells which are actively proliferating take up ^3 H-thymidine whereas cells that are not proliferating take up ^3 H-thymidine at much slower rates or not at all. Test agents that inhibit the uptake of ^3 H-thymidine thus slow the growth of cells.

[3] = test system: MCF-7/ADR adriamycin resistant line of MCF-7 cells; test: Human tumor cell growth inhibition (3H-thymidine incorporation), MCF-7/ADR; assay type: cell-based; conditions: NCI/ADR-RES, 18 to 24 hrs
Excerpt: as §1, §2, §3

[4] = test system: PMA-stimulated neutrophils; test: Neutrophil superoxide anion release assay; assay type: cell-based; conditions: Homo sapiens, 0.5 h, 37° C., 30 minutes, cytochrome c reduction
Experimental: Neutrophils were isolated form whole blood collected from human volunteers. All reagent materials are obtained from Sigma Chemical Company with the exception of isotonic saline (Travenol Laboratories, Inc., Deerfield, Ill.) and lymphocyte separation medium (Organon Teknika, Durham, N.C.).
Whole blood was drawn and mixed with sodium heparin to a final concentration of 10 units/ml to prevent clotting. An equal volume of 3.0 % dextran in isotonic saline was added, mixed, and allowed to settle for 30 minutes to bind red blood cells (RBC). Supernatant was removed, underlayered with lymphocyte separation medium and centrifuged for 40 min at 400 xg in a centrifuge (Beckman GPR, Norcross, Ga.). The pellet was alternately taken up in 0.2% and 1.6% NaCl to lyse RBCs before washing with Hank's Balanced Salt Solution (HBSS). […]
The neutrophil cell concentration was adjusted to 2×10^6 cells/ml with HBSS before adding 0.8 ml cells to 12×75 mm polypropylene test tubes (Fisher Scientific). […] Optical density (OD) of cytochrome c was read in a spectrophotometer (Shimadzu) at 550 nm. […] Reducing cytochrome c increases its absorbance, and the change in OD of cytochrome c is proportional to the amount of […] produced by PMA stimulation. […] Inhibition is expressed as IC50 μM and is the amount of test compound that will inhibit fifty percent of the PMA-stimulated respiratory outburst, i.e. […] production.

[5] = test system: keratinocytes (NHEK cells); test: Human keratinocyte inhibition (3H-thymidine incorporation); assay type: cell-based
Excerpt: as §3
Proliferating keratinocytes (NHEK cells purchased from Clonetics, Inc., San Diego, Calif.) in second passage were grown in Keratinocyte Growth Medium (KGM) (Clonetics, Inc.) Cells were trypsinized (0.025% trypsin, Clonetics), counted with a hemacytometer (Scientific Products), and seeded at a concentration of 2,500 cells/well in a 96 well microtiter plate. After allowing cells to attach to the surface overnight, the culture medium was aspirated and replaced with 100 μl of fresh KGM. Test agents were evaluated and IC50 's were determined according to the ^3 H-thymidine incorporation procedures described as in Example 18. IC50 is the concentration of test compound required to inhibit fifty percent of the incorporation of ^3 H-thymidine into proliferating cells not exposed to test agent.

| IC50 (protein kinase C) [µM] | inhibitory activity against cAMP dependent protein kinase (PKA) [1] | IC50 [2] [µM] | IC50 [3] [µM] | IC50 [4] [µM] | IC50 [5] [µM] | Compound |
| --- | --- | --- | --- | --- | --- | --- |
| 130 | no effect on PKA activity | 7.7 | 6.6 | 13.1 | – | CCCCCCCCCCCCCCC[C@@H]1OC(C)(C)OC[C@H]1N (relative stereo) [Compound 5, Erythro-2,2-dimethyl-5-amino-4-pentadecyl-1,3-dioxane] |
| 120 | no effect on PKA activity | 6 | 5.5 | – | 4.7 | CCCCCCCCCCCCCCC[C@@H]1OC(C)(C)OC[C@@H]1N (relative stereo) [Compound 6, 2,2-Dimethyl-5-amino-4-pentadecyl-1,3-dioxane] |
| 29 | no effect on PKA activity | – | – | 1.52 | – | CCCCCCCCCCCCCCC[C@@H]1OC(C)(C)OC[C@H]1NC(C)=N (relative stereo) [Compound 10, Erythro-5-Acetamidino-2,2-dimethyl-4-pentadecyl-1,3-dioxane] |
| – | – | – | – | – | 6.5 | CCCCCCCCCCCCCCCC(O)C(CO)[N+](=O)[O-] (stereo not drawn) [Compound 3, Threo/erythro-2-Nitro-1,3-octadecanediol] |
| – | – | 3.2 | – | – | 0.8 | CCCCCCCCCCCCCCC[C@H](O)[C@H](CO)NC(=O)OC(C)(C)C [Compound 11, Tert-Butyl (1S, 2S)-N-[2-hydroxy-1-(hydroxymethyl)heptadecyl]carbamate] |
| 121 | no effect on PKA activity | 5.1 | 6.3 | – | – | CCCCCCCCCCCCCCC[C@@H]1OC(C)(C)OC[C@@H]1N [Compound 13, Threo-(2S, 3S) -5-Amino-2,2-dimethyl-4-pentadecyl-1,3-dioxane] |
| 64 | no effect on PKA activity | – | – | – | – | CCCCCCCCCCCCCCC[C@@H]1OC(C)OC[C@@H]1N (stereo partly drawn) [Compound 18, Threo-5-Amino-2-methyl-4-pentadecyl-1,3-dioxane] |
| 182 | no effect on PKA activity | – | – | – | – | CCCCCCCCCCCCCCC[C@@H]1OC(c2ccccc2)OC[C@@H]1N (stereo partly drawn) [Compound 19, Threo-5-Amino-2-phenyl-4-pentadecyl-1,3-dioxane] |
| 83 | – | – | – | – | – | CCCCCCCCCCCCCCCC1OCOCC1N (stereo not shown) [Compound 24] |
